In brackets after ≈: the same amount, converted by molar mass. Where a name gives a salt, the structure may show the parent alone. Read-outs that look alike come from different tables or passages of the source. Some results are limits rather than exact numbers.

One series has as its system Escherichia coli A 223. Put plainly: in vitro bacteriostatic action, solid medium, dilutions method. Type of series: cell-based. Particulars: A223, not producing lactamases, read-out: minimum inhibitor concentration (MIC). How it is done:
(§1) The in vitro bacteriostatic action was determined in a solid medium by the dilutions method. The study was directed to Gram^+ and Gram^- strains of which several are known for producing β lactamases.
(§2) The results are expressed in the minimum inhibitor concentrations (MIC--μg/ml).

Series [1] relates to Staphylococcus aureus Smith. The description is as above. In kind it is cell-based. Particulars: not producing lactamases, read-out: minimum inhibitor concentration (MIC). How it is done: as §1, §2
In series [2] the test system is Klebsiella pneumoniae RO 30. Described as above. Type of series: cell-based. Particulars: RO30, producing lactamases, read-out: minimum inhibitor concentration (MIC). The protocol:
as §1, §2

Series [3] relates to Escherichia coli R 69/2 TEM. Described as above. In kind it is cell-based. Particulars: R69/2TEM, read-out: minimum inhibitor concentration (MIC). The protocol: as §1, §2
Series [4] relates to Escherichia coli SOL RL 90. The description is as above. Type of series: cell-based. Particulars: SOLRL90, producing lactamases, read-out: minimum inhibitor concentration (MIC). The protocol:
as §1, §2

Series [5] deals with Klebsiella pneumoniae IP E 55. The description is as above. In kind it is cell-based. Particulars: IPE55, not producing lactamases, read-out: minimum inhibitor concentration (MIC). How it is done: as §1, §2
Series [6] deals with Escherichia coli SOL RL 90. As to the kind of experiment: therapeutic efficacy in septicaemia provoked in the mouse by Escherichia coli SOL RL 90. Type of series: in vivo. Particulars: SOLRL90, sc, 96 h, read-out: DE 50 (median effective dose, ED 50). The protocol:
The therapeutic efficacy of the products is determined in the septicaemic model of the mouse.
Septicaemia is provoked by intraperitoneal inoculation of 0.5 ml of an appropriate dilution of suspension of the strain E.coli Sol. RL 90 producing cephalosporinase.
The products are administered in solution in a phosphate buffer pH 7.0 in a volume of 0.2 ml by the sub-cutaneous route and at a rate of 5 doses (mg of product per kg of live weight of mouse) to batches of 10 mice 1 hour and 5 hours after inoculation of the germ.
After 4 days of observation during which the mortality is noted, the median effective doses (ED 50) are calculated by the Muench and Reed method.

Series [7] can be described thus: solubility in a buffer solution. In kind it is physicochemical. Particulars: pH 7, aqueous buffer; buffer solution having a pH of 7. The source says:
The pharmaceutical compositions are made from compounds (I) in their acid form or, when their solubility is insufficient, in the form of a salt.

In the case of `CO/N=C(\C(=O)NC1C(=O)N2C(C(=O)O)=C(CSC(=O)c3ccco3)CSC12)c1csc(N)n1` (stereo not drawn) [31 916, Syn isomer [(amino-2 thiazolyl-4)-2 methoxyimino-2 acetamido]-7 (furyl-2 carbonylthiomethyl)-3 cepheme-3 4-carboxylic acid], the MIC was determined as 0.5 µg/mL (≈ 0.955 µM) with Escherichia coli A 223; 0.25 µg/mL (≈ 0.477 µM) in series [1]; 8 µg/mL (≈ 15.3 µM) in series [2]; 0.25 µg/mL (≈ 0.477 µM) in series [3]; 2 µg/mL (≈ 3.82 µM) in series [4]; 1 µg/mL (≈ 1.91 µM) in series [5]. Further, the ED50 in series [6] (mouse septicaemia, sub-cutaneous, 1 hour and 5 hours after inoculation, 4 days of observation, Muench and Reed method) is 5.4 mg/kg.
With `CO/N=C(\C(=O)NC1C(=O)N2C(C(=O)O)=C(CSC(=O)c3cccs3)CSC12)c1csc(N)n1` (stereo not drawn) [31 917, syn isomer [(amino-2 thiazolyl-4)-2 methoxyimino-2 acetamido]-7 (thienyl-2 carbonylthiomethyl)-3 cepheme-3 4-carboxylic acid], the MIC came to 0.5 µg/mL (≈ 0.927 µM) with Escherichia coli A 223; 0.25 µg/mL (≈ 0.463 µM) in series [1]; 8 µg/mL (≈ 14.8 µM) in series [2]; 0.5 µg/mL (≈ 0.927 µM) in series [3]; 2 µg/mL (≈ 3.71 µM) in series [4]; 1 µg/mL (≈ 1.85 µM) in series [5]. Besides, the ED50 in series [6] was determined as 3.6 mg/kg.
In the case of `CO/N=C(\C(=O)NC1C(=O)N2C(C(=O)O)=C(CSC(=O)c3ccco3)CSC12)c1csc(N)n1` (stereo not drawn) [sodium salt of compound CM 31916], in series [7], the solubility is over 200 mg/mL.

By solubility is commonly meant the dissolved amount per volume that the medium holds.

(Values after patent US4464367A, “Cephalosporin derivatives, process for preparation thereof and drugs containing said derivatives usable as antibiotics” (Sanofi, priority 1980, dated 1984).)
